Publication PMC11845477, “Exploring the principles behind antibiotics with limited resistance” (Nature Communications, 2025)

Legend:
[1] = test system: K. pneumoniae ATCC 10031 (SEN) and K. pneumoniae ATCC 700603 (MDR); experiment: microbe, parasite or virus in culture; type: cell-based, Klebsiella pneumoniae; details: for MIC of ancestor: ancestor strain; for MIC: Klebsiella pneumoniae, across three biological replicates
Method: (§1) This study focused on multiple bacterial strains, as follows. For the FoR and ALE experiments, 2 strains per species were chosen: E. coli ATCC 25922, K. pneumoniae ATCC 10031, A. baumannii ATCC 17978, and P. aeruginosa ATCC BAA-3107 as sensitive (SEN) strains, and E. coli NCTC13846, K. pneumoniae ATCC 700603, A. baumannii ATCC BAA-1605 and P. aeruginosa LESB58 as multi-drug resistant (MDR) strains. Functional metagenomic screens were performed with E. coli ATCC 25922 and K. pneumoniae ATCC 10031 strains. To determine the dose-kill properties of the different antibiotics, an E. coli strain (ATCC 25922) expressing a yellow fluorescent protein (pZS2R, YFP, CHL^R) and a red fluorescent protein (pZS2R, mCherry, CHL^R) was used.
(§2) Unless otherwise indicated, cation-adjusted Mueller-Hinton Broth 2 (MHB, Millipore) medium was used throughout the study, except for SCH79797 (SCH).
(§3) A robotic liquid handling system was used to automatically prepare a 11 to 16-step serial dilution in 384-well microtiter plates (Greiner). A final concentration of 5 × 10^5 bacterial cells per mL were inoculated into each well containing 60 µL MHB medium. Bacterial cultures were incubated at 37 °C with continuous shaking (Infors shaker, 900 rpm with 3 mm throw) for 18 hours (2 replicates from each). Cell growth was monitored by measuring the optical density (OD600 values, using Biotek Synergy microplate reader). MIC was defined as the antibiotic concentration of complete growth inhibition (i.e., OD600 < 0.05). Relative MIC was calculated as follows:1 relativeMIC=MICevolved/MICancestor

[2] = test system: P. aeruginosa ATCC BAA-3107 (SEN) and P. aeruginosa LESB58 (MDR); experiment: microbe, parasite or virus in culture; type: cell-based, Pseudomonas aeruginosa; details: for MIC of ancestor: ancestor strain; for MIC: Pseudomonas aeruginosa, across three biological replicates
Method: as §1, §2, §3

[3] = test system: K. pneumoniae ATCC 10031 (SEN) and K. pneumoniae ATCC 700603 (MDR); experiment: Adaptive laboratory evolution (ALE), relative MIC of evolved lines; type: cell-based, Klebsiella pneumoniae
Description: Using the same set of bacterial strains, we initiated adaptive laboratory evolution with the aim to maximize the level of antibiotic resistance in the populations achieved during a longer, but fixed time period.
An established protocol for adaptive laboratory evolution[46],[73] was followed to propagate populations with the highest resistance levels. Starting with an antibiotic concentration that caused approximately 50% growth inhibition, ten parallel populations for each antibiotic-ancestor strain combination were grown for 72 hours at 37 °C with continuous shaking (300 RPM). MHB broth medium was used unless stated otherwise. After each incubation, 20 µl of each culture was transferred to four new wells containing fresh medium with increasing antibiotic concentrations (0.5×, 1×, 1.5×, and 2.5× the previous concentration) in a chessboard layout to monitor potential cross-contamination. Growth was monitored by measuring OD600 using a Biotek Synergy 2 microplate reader, and only populations grown in the highest drug concentration with an OD600 > 0.2 were transferred further.
as §3, with “relativeMIC=MICevolved/MICancestor […]” for “relativeMIC=MICevolved/MICancestor”
Supplementary Figure 4. Resistance levels following adaptive laboratory evolution across bacterial strains. The level of resistance was measured as the fold change in relative MIC between evolved and ancestral strains after ~60 days of adaptive laboratory evolution. Data are grouped by bacterial strain (A. baumannii (AB), E. coli (EC), K. pneumoniae (KP), and P. aeruginosa (PA)) and categorized as either multidrug-resistant (MDR) or sensitive (SEN). Each data point represents a laboratory evolved line, and boxplots show the median, first and third quartiles, with whiskers indicating the 5th and 95th percentiles.
Statistical analysis was performed using two-sided Dunn’s post-hoc test with Benjamini-Hochberg correction for multiple comparisons (****/ ***/ **/ * indicates p < 0.0001/ 0.001/ 0.01/ 0.05). For detailed information on antibiotic and bacterial species, see Supplementary Table 1. For mode of action groups, refer to Table 1. Source data are provided as a Source Data file.

[4] = Klebsiella pneumoniae ATCC 10031 (KP-SEN)
[5] = Klebsiella pneumoniae ATCC 10031 (KP-SEN), sheet fig 2a
[6] = Klebsiella pneumoniae ATCC 700603 (KP-MDR)
[7] = Pseudomonas aeruginosa ATCC BAA 3107 (PA-SEN)
[8] = ATCCBAA3107, Pseudomonas aeruginosa ATCC BAA-3107 (PA-SEN)
[9] = ATCCBAA3107, Pseudomonas aeruginosa LESB 58 (PA-MDR)
[10] = KP-SEN (ATCC 10031), evolved line 1, MIC of evolved line / MIC of ancestor
[11] = KP-SEN (ATCC 10031), evolved line 2, MIC of evolved line / MIC of ancestor
[12] = KP-SEN (ATCC 10031), evolved line 3, MIC of evolved line / MIC of ancestor
[13] = KP-SEN (ATCC 10031), evolved line 4, MIC of evolved line / MIC of ancestor
[14] = KP-SEN (ATCC 10031), evolved line 5, MIC of evolved line / MIC of ancestor
[15] = KP-SEN (ATCC 10031), evolved line 6, MIC of evolved line / MIC of ancestor
[16] = KP-SEN (ATCC 10031), evolved line 7, MIC of evolved line / MIC of ancestor
[17] = KP-SEN (ATCC 10031), evolved line 8, MIC of evolved line / MIC of ancestor
[18] = KP-SEN (ATCC 10031), evolved line 9, MIC of evolved line / MIC of ancestor
[19] = KP-SEN (Klebsiella pneumoniae ATCC 10031), evolved line 8 adapted to the named antibiotic
[20] = KP-SEN (Klebsiella pneumoniae ATCC 10031), evolved line 9 adapted to the named antibiotic
[21] = Klebsiella pneumoniae ATCC 10031 (KP-SEN), evolved line 1
[22] = Klebsiella pneumoniae ATCC 10031 (KP-SEN), evolved line 2
[23] = Klebsiella pneumoniae ATCC 10031 (KP-SEN), evolved line 3
[24] = Klebsiella pneumoniae ATCC 10031 (KP-SEN), evolved line 4
[25] = Klebsiella pneumoniae ATCC 10031 (KP-SEN), evolved line 5
[26] = Klebsiella pneumoniae ATCC 10031 (KP-SEN), evolved line 6
[27] = Klebsiella pneumoniae ATCC 10031 (KP-SEN), evolved line 7
[28] = Klebsiella pneumoniae ATCC 10031 (KP-SEN), evolved line 8
[29] = Klebsiella pneumoniae ATCC 10031 (KP-SEN), evolved line 9

Nc1nc(-n2cc(C(=O)O)c(=O)c3cc(F)c(N4CC(O)C4)c(Cl)c32)c(F)cc1F [Delafloxacin]
MIC of ancestor [1, 4]: 0.00195 µg/mL | MIC of ancestor [1, 5]: 0.00195 µg/mL | MIC of ancestor [1, 6]: 1 µg/mL | MIC of ancestor ([1]; Klebsiella pneumoniae ATCC 700603 (KP-MDR), sheet fig 2a): 1 µg/mL | MIC [1, 4]: 0.00195 µg/mL | MIC [1, 6]: 1 µg/mL | MIC of ancestor ([2]; P. aeruginosa LESB 58 (PA-MDR), sheet fig 2a): 2 µg/mL | MIC of ancestor [2, 7]: 0.0156 µg/mL | MIC of ancestor ([2]; Pseudomonas aeruginosa LESB 58 (PA-MDR)): 2 µg/mL | MIC [2, 8]: < 0.0312 µg/mL | MIC [2, 9]: 2 µg/mL | Relative MIC ([3]; KP-MDR (ATCC 700603), evolved line 2, MIC of evolved line / MIC of ancestor): 64 | Relative MIC ([3]; KP-MDR (ATCC 700603), evolved line 3, MIC of evolved line / MIC of ancestor): 16 | Relative MIC ([3]; KP-MDR (ATCC 700603), evolved line 4, MIC of evolved line / MIC of ancestor): 32 | Relative MIC ([3]; KP-MDR (ATCC 700603), evolved line 5, MIC of evolved line / MIC of ancestor): 32 | Relative MIC ([3]; KP-MDR (ATCC 700603), evolved line 6, MIC of evolved line / MIC of ancestor): 128 | Relative MIC ([3]; KP-MDR (ATCC 700603), evolved line 7, MIC of evolved line / MIC of ancestor): 128 | Relative MIC ([3]; KP-MDR (ATCC 700603), evolved line 8, MIC of evolved line / MIC of ancestor): 64 | Relative MIC ([3]; KP-MDR (ATCC 700603), evolved line 9, MIC of evolved line / MIC of ancestor): 64 | Relative MIC ([3]; KP-MDR (ATCC 700603), evolved line 10, MIC of evolved line / MIC of ancestor): 64 | Relative MIC (log10) ([3]; KP-MDR (Klebsiella pneumoniae ATCC 700603), evolved line 2 adapted to the named antibiotic): 1.806 | Relative MIC (log10) ([3]; KP-MDR (Klebsiella pneumoniae ATCC 700603), evolved line 6 adapted to the named antibiotic): 2.107 | Relative MIC (log10) ([3]; KP-MDR (Klebsiella pneumoniae ATCC 700603), evolved line 7 adapted to the named antibiotic): 2.107 | Relative MIC (log10) ([3]; KP-MDR (Klebsiella pneumoniae ATCC 700603), evolved line 8 adapted to the named antibiotic): 1.806 | Relative MIC (log10) ([3]; KP-MDR (Klebsiella pneumoniae ATCC 700603), evolved line 10 adapted to the named antibiotic): 1.806 | Relative MIC [3, 10]: 16384 | Relative MIC [3, 11]: 8192 | Relative MIC [3, 12]: 16384 | Relative MIC [3, 13]: 8192 | Relative MIC [3, 14]: 16384 | Relative MIC [3, 15]: 16384 | Relative MIC [3, 16]: 8192 | Relative MIC [3, 17]: 65536 | Relative MIC [3, 18]: 65536 | Relative MIC (log10) ([3]; KP-SEN (Klebsiella pneumoniae ATCC 10031), evolved line 1 adapted to the named antibiotic): 4.214 | Relative MIC (log10) ([3]; KP-SEN (Klebsiella pneumoniae ATCC 10031), evolved line 3 adapted to the named antibiotic): 4.214 | Relative MIC (log10) ([3]; KP-SEN (Klebsiella pneumoniae ATCC 10031), evolved line 7 adapted to the named antibiotic): 3.913 | Relative MIC (log10) [3, 19]: 4.816 | Relative MIC (log10) [3, 20]: 4.816 | Relative MIC [3, 21]: 16384 | Relative MIC [3, 22]: 8192 | Relative MIC [3, 23]: 16384 | Relative MIC [3, 24]: 8192 | Relative MIC [3, 25]: 16384 | Relative MIC [3, 26]: 16384 | Relative MIC [3, 27]: 8192 | Relative MIC [3, 28]: 65536 | Relative MIC [3, 29]: 65536 | Relative MIC ([3]; Klebsiella pneumoniae ATCC 700603 (KP-MDR), evolved line 2): 64 | Relative MIC ([3]; Klebsiella pneumoniae ATCC 700603 (KP-MDR), evolved line 3): 16 | Relative MIC ([3]; Klebsiella pneumoniae ATCC 700603 (KP-MDR), evolved line 4): 32 | Relative MIC ([3]; Klebsiella pneumoniae ATCC 700603 (KP-MDR), evolved line 5): 32 | Relative MIC ([3]; Klebsiella pneumoniae ATCC 700603 (KP-MDR), evolved line 6): 128 | Relative MIC ([3]; Klebsiella pneumoniae ATCC 700603 (KP-MDR), evolved line 7): 128 | Relative MIC ([3]; Klebsiella pneumoniae ATCC 700603 (KP-MDR), evolved line 8): 64 | Relative MIC ([3]; Klebsiella pneumoniae ATCC 700603 (KP-MDR), evolved line 9): 64 | Relative MIC ([3]; Klebsiella pneumoniae ATCC 700603 (KP-MDR), evolved line 10): 64

C[C@H]1c2cccc(O)c2C(=O)C2=C(O)[C@]3(O)C(=O)C(C(N)=O)=C(O)[C@@H](N(C)C)[C@@H]3[C@@H](O)[C@@H]21 [Doxycycline]
MIC of ancestor [1, 4]: 0.25 µg/mL | MIC of ancestor [1, 5]: 0.25 µg/mL | MIC [1, 4]: 0.25 µg/mL | MIC [1, 6]: 32 µg/mL | MIC of ancestor ([2]; P. aeruginosa ATCC BAA 3107 (PA-SEN), sheet fig 2a): 4 µg/mL | MIC of ancestor [2, 7]: 4 µg/mL | MIC [2, 8]: 4 µg/mL | MIC [2, 9]: 32 µg/mL | Relative MIC [3, 10]: 32 | Relative MIC [3, 11]: 64 | Relative MIC [3, 12]: 32 | Relative MIC [3, 13]: 256 | Relative MIC [3, 14]: 256 | Relative MIC [3, 15]: 256 | Relative MIC [3, 16]: 256 | Relative MIC [3, 17]: 256 | Relative MIC [3, 18]: 256 | Relative MIC ([3]; KP-SEN (ATCC 10031), evolved line 10, MIC of evolved line / MIC of ancestor): 128 | Relative MIC (log10) ([3]; KP-SEN (Klebsiella pneumoniae ATCC 10031), evolved line 4 adapted to the named antibiotic): 2.408 | Relative MIC (log10) ([3]; KP-SEN (Klebsiella pneumoniae ATCC 10031), evolved line 5 adapted to the named antibiotic): 2.408 | Relative MIC (log10) ([3]; KP-SEN (Klebsiella pneumoniae ATCC 10031), evolved line 6 adapted to the named antibiotic): 2.408 | Relative MIC (log10) [3, 19]: 2.408 | Relative MIC (log10) [3, 20]: 2.408 | Relative MIC [3, 21]: 32 | Relative MIC [3, 22]: 64 | Relative MIC [3, 23]: 32 | Relative MIC [3, 24]: 256 | Relative MIC [3, 25]: 256 | Relative MIC [3, 26]: 256 | Relative MIC [3, 27]: 256 | Relative MIC [3, 28]: 256 | Relative MIC [3, 29]: 256 | Relative MIC ([3]; Klebsiella pneumoniae ATCC 10031 (KP-SEN), evolved line 10): 128
